Measurements reported in the NIST ThermoML archive (doi:10.1016/j.jct.2012.03.020).
Numbers after ± are expanded uncertainties.

Key:
[1] = refractive index (Na D-line) (dimensionless); mn = molality of the nth substance listed, in mol/kg; settings: 101 kPa, Liquid, Standard Abbe refractometry
[2] = mn = molality of the nth substance listed, in mol/kg; settings: 101 kPa, Liquid, Pycnometric method

O=C(c1ccc([N+](=O)[O-])cc1)N(O)c1ccccc1 [N-hydroxy-4-nitro-N-phenylbenzamide] + CN(C)C=O
Settings	mass density, 298.15 K [kg/m3]	mass density, 303.15 K [kg/m3]	mass density, 308.15 K [kg/m3]	mass density, 313.15 K [kg/m3]	refractive index, 298.15 K	refractive index, 303.15 K	refractive index, 308.15 K	refractive index, 313.15 K
[1], m1 = 0.0234	–	–	–	–	1.428 ± 0.0004	1.4264 ± 0.0004	1.4242 ± 0.0004	1.4223 ± 0.0004
[1], m1 = 0.0469	–	–	–	–	1.4289 ± 0.0004	1.4274 ± 0.0004	1.4254 ± 0.0004	1.4235 ± 0.0004
[1], m1 = 0.0703	–	–	–	–	1.4294 ± 0.0004	1.4279 ± 0.0004	1.4259 ± 0.0004	1.4244 ± 0.0004
[1], m1 = 0.0938	–	–	–	–	1.4299 ± 0.0004	1.4285 ± 0.0004	1.4266 ± 0.0004	1.4249 ± 0.0004
[1], m1 = 0.1172	–	–	–	–	1.43 ± 0.0004	1.429 ± 0.0004	1.4271 ± 0.0004	1.4258 ± 0.0004
[1], m1 = 0.1407	–	–	–	–	1.4305 ± 0.0004	1.4295 ± 0.0004	1.4276 ± 0.0004	1.4266 ± 0.0004
[1], m1 = 0.1641	–	–	–	–	1.4315 ± 0.0004	1.4302 ± 0.0004	1.4286 ± 0.0004	1.4271 ± 0.0004
[1], m1 = 0.1876	–	–	–	–	1.4325 ± 0.0004	1.4311 ± 0.0004	1.4292 ± 0.0004	1.4275 ± 0.0004
[1], m1 = 0.211	–	–	–	–	1.4329 ± 0.0004	1.4319 ± 0.0004	1.4301 ± 0.0004	1.4284 ± 0.0004
[1], m1 = 0.2345	–	–	–	–	1.433 ± 0.0004	1.4322 ± 0.0004	1.4304 ± 0.0004	1.4291 ± 0.0004
[2], m1 = 0.0234	947.5 ± 0.5	942.1 ± 0.5	938.1 ± 0.6	932.8 ± 0.6	–	–	–	–
[2], m1 = 0.0469	949.7 ± 0.5	944.4 ± 0.5	940.5 ± 0.5	935.3 ± 0.6	–	–	–	–
[2], m1 = 0.0703	951.9 ± 0.5	946.7 ± 0.5	942.8 ± 0.5	937.7 ± 0.6	–	–	–	–
[2], m1 = 0.0938	954 ± 0.5	948.9 ± 0.5	945.1 ± 0.5	940 ± 0.6	–	–	–	–
[2], m1 = 0.1172	956.1 ± 0.5	951.1 ± 0.5	947.3 ± 0.5	942.3 ± 0.6	–	–	–	–
[2], m1 = 0.1407	958.2 ± 0.5	953.2 ± 0.5	949.5 ± 0.5	944.5 ± 0.6	–	–	–	–
[2], m1 = 0.1641	960.2 ± 0.5	955.3 ± 0.5	951.6 ± 0.5	946.7 ± 0.6	–	–	–	–
[2], m1 = 0.1876	962.2 ± 0.5	957.4 ± 0.5	953.7 ± 0.5	948.8 ± 0.6	–	–	–	–
[2], m1 = 0.211	964.2 ± 0.5	959.4 ± 0.5	955.8 ± 0.5	950.8 ± 0.6	–	–	–	–
[2], m1 = 0.2345	966.1 ± 0.5	961.4 ± 0.5	957.8 ± 0.5	952.9 ± 0.6	–	–	–	–

O=C(c1ccccc1)N(O)c1ccccc1 [N-phenylbenzohydroxamic acid] + CN(C)C=O
Settings	mass density, 298.15 K [kg/m3]	mass density, 303.15 K [kg/m3]	mass density, 308.15 K [kg/m3]	mass density, 313.15 K [kg/m3]	refractive index, 298.15 K	refractive index, 303.15 K	refractive index, 308.15 K	refractive index, 313.15 K
[1], m1 = 0.0234	–	–	–	–	1.4275 ± 0.0004	1.426 ± 0.0004	1.4238 ± 0.0004	1.422 ± 0.0004
[1], m1 = 0.0469	–	–	–	–	1.4277 ± 0.0004	1.4269 ± 0.0004	1.4249 ± 0.0004	1.423 ± 0.0004
[1], m1 = 0.0703	–	–	–	–	1.428 ± 0.0004	1.4271 ± 0.0004	1.4259 ± 0.0004	1.424 ± 0.0004
[1], m1 = 0.0938	–	–	–	–	1.4285 ± 0.0004	1.4274 ± 0.0004	1.4266 ± 0.0004	1.425 ± 0.0004
[1], m1 = 0.1172	–	–	–	–	1.4288 ± 0.0004	1.4275 ± 0.0004	1.427 ± 0.0004	1.4261 ± 0.0004
[1], m1 = 0.1407	–	–	–	–	1.4289 ± 0.0004	1.428 ± 0.0004	1.4273 ± 0.0004	1.4265 ± 0.0004
[1], m1 = 0.1641	–	–	–	–	1.4295 ± 0.0004	1.4285 ± 0.0004	1.4276 ± 0.0004	1.4271 ± 0.0004
[1], m1 = 0.1876	–	–	–	–	1.43 ± 0.0004	1.4289 ± 0.0004	1.428 ± 0.0004	1.4273 ± 0.0004
[1], m1 = 0.211	–	–	–	–	1.4305 ± 0.0004	1.4295 ± 0.0004	1.4282 ± 0.0004	1.4274 ± 0.0004
[1], m1 = 0.2345	–	–	–	–	1.431 ± 0.0004	1.43 ± 0.0004	1.4288 ± 0.0004	1.4275 ± 0.0004
[2], m1 = 0.0234	947.5 ± 0.5	942.1 ± 0.5	938.1 ± 0.6	932.9 ± 0.6	–	–	–	–
[2], m1 = 0.0469	949.7 ± 0.5	944.4 ± 0.5	940.5 ± 0.5	935.4 ± 0.6	–	–	–	–
[2], m1 = 0.0703	951.8 ± 0.5	946.6 ± 0.5	942.8 ± 0.5	937.8 ± 0.6	–	–	–	–
[2], m1 = 0.0938	953.9 ± 0.5	948.8 ± 0.5	945.1 ± 0.5	940.1 ± 0.6	–	–	–	–
[2], m1 = 0.1172	955.9 ± 0.5	950.9 ± 0.5	947.3 ± 0.5	942.4 ± 0.6	–	–	–	–
[2], m1 = 0.1407	957.9 ± 0.5	953 ± 0.5	949.5 ± 0.5	944.5 ± 0.6	–	–	–	–
[2], m1 = 0.1641	959.9 ± 0.5	954.9 ± 0.5	951.5 ± 0.5	946.6 ± 0.6	–	–	–	–
[2], m1 = 0.1876	961.8 ± 0.5	956.9 ± 0.5	953.6 ± 0.5	948.6 ± 0.6	–	–	–	–
[2], m1 = 0.211	963.7 ± 0.5	958.8 ± 0.5	955.6 ± 0.5	950.6 ± 0.6	–	–	–	–
[2], m1 = 0.2345	965.4 ± 0.5	960.7 ± 0.5	957.5 ± 0.5	952.5 ± 0.6	–	–	–	–
